What is called IC50 is the point on the concentration scale where inhibition reaches its midpoint.

The structures appear in SMILES notation.

Chain of Tumour suppressor p53/oncoprotein Mdm2 (P04637 whole entry): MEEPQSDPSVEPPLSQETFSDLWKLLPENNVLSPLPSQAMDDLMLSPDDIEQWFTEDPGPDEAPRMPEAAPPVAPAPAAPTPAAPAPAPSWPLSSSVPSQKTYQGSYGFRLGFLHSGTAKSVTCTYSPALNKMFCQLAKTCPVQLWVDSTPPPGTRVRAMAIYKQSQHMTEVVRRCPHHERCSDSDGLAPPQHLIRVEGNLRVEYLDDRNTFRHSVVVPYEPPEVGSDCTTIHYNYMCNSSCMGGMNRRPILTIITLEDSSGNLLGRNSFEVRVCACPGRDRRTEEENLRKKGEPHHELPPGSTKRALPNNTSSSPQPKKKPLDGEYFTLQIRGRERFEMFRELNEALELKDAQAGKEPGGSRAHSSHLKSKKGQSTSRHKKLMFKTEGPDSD
Chain of Tumour suppressor p53/oncoprotein Mdm2 (Q00987 whole entry): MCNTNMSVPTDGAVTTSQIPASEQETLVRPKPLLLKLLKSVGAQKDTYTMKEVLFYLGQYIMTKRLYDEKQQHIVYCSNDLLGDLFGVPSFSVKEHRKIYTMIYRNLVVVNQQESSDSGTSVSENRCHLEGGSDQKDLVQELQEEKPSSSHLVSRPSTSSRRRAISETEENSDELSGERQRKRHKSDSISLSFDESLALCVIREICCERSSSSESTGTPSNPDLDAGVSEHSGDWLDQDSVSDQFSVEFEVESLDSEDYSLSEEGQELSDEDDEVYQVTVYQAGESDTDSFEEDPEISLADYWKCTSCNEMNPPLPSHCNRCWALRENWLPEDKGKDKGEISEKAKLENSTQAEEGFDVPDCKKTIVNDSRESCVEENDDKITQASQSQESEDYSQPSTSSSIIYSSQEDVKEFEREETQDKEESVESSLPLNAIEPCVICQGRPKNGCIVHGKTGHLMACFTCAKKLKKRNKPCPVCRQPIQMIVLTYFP

The first experiment has as its target Tumour suppressor p53/oncoprotein Mdm2 (Homo sapiens, UniProt Q00987). Kind of experiment: Inhibition of human His-tagged p53/GST-tagged MDM2 interaction after 60 mins by chemiluminescence assay. The format is protein assay.
`CC(C)C1=C(C(=O)N2CCCC2)SC2=NC(C)(c3ccc(Cl)cc3)C(c3ccc(Cl)cc3)N21` (racemic) yielded a 50% inhibitory concentration (IC50) of 200 nM.

As for `CC(C)C1=C(C(=O)N2CCNC(=O)C2)SC2=N[C@@](C)(c3ccc(Cl)cc3)[C@@H](c3ccc(Cl)cc3)N21`, the half-maximal inhibitory concentration (IC50) stood at 92 nM.

As for `CC(C)C1=C(C(=O)N2CCNC(=O)C2)SC2=NC(C)(c3ccc(Cl)cc3)C(c3ccc(Cl)cc3)N21` (racemic), half-maximal inhibition (IC50) required 410 nM.

As for `CC(C)C1=C(C(=O)N(C)C)SC2=N[C@@](C)(c3ccc(Cl)cc3)[C@@H](c3ccc(Cl)cc3)N21`, half-maximal inhibition (IC50) required 26 nM.

`CC(C)C1=C(C(=O)N2CCNC(=O)C2)SC2=N[C@](C)(c3ccc(Cl)cc3)[C@H](c3ccc(Cl)cc3)N21` gave a half-maximal inhibitory concentration (IC50) of 1500 nM.

In turn, `CC(C)C1=C(C(=O)N2CCCC[C@H]2C(=O)N(C)C)SC2=NC(C)(c3ccc(Cl)cc3)C(c3ccc(Cl)cc3)N21` (mixture of isomers) displayed an IC50 of 170 nM.

Turning to `CC(=O)N1CCN(C(=O)[C@@H]2CCCN2C(=O)C2=C(C(C)C)N3C(=N[C@@](C)(c4ccc(Cl)cc4)[C@H]3c3ccc(Cl)cc3)S2)CC1`, the IC50 worked out at 66 nM.

`CC(C)C1=C(C(=O)N2CCC[C@H]2C(=O)N2C[C@@H](C)N[C@@H](C)C2)SC2=N[C@@](C)(c3ccc(Cl)cc3)[C@@H](c3ccc(Cl)cc3)N21` gave an IC50 of 37 nM.

Regarding `COCCN(C)C(=O)[C@@H]1CCCN1C(=O)C1=C(C(C)C)N2C(=N[C@@](C)(c3ccc(Cl)cc3)[C@H]2c2ccc(Cl)cc2)S1`, inhibition was half-maximal at 46 nM (IC50).

Consider `CC(C)C1=C(C(=O)N2CCC[C@H]2C(=O)N2CCN(C)CC2)SC2=N[C@@](C)(c3ccc(Cl)cc3)[C@@H](c3ccc(Cl)cc3)N21`, for which the 50% inhibitory concentration (IC50) came out at 23 nM.

On to `CNC(=O)C1=C(C(C)C)N2C(=NC(C)(c3ccc(Cl)cc3)C2c2ccc(Cl)cc2)S1` (racemic), for which the midpoint of inhibition, the IC50, lay at 1100 nM.

Turning to `CC(C)C1=C(C(=O)N2CCC[C@H]2C(=O)N2CCNC(=O)C2)SC2=N[C@@](C)(c3ccc(Cl)cc3)[C@@H](c3ccc(Cl)cc3)N21`, the midpoint of inhibition, the IC50, lay at 79 nM.

With `CC(C)C1=C(C(N)=O)SC2=NC(C)(c3ccc(Cl)cc3)C(c3ccc(Cl)cc3)N21` (racemic), the IC50 worked out at 780 nM.

The molecule `CC(C)C1=C(C(=O)N2CCC[C@H]2C(=O)N2CCOCC2)SC2=N[C@@](C)(c3ccc(Cl)cc3)[C@@H](c3ccc(Cl)cc3)N21` came in with a half-inhibitory concentration (IC50) of 26 nM.

`CC(C)C1=C(C(=O)N2CNC(=O)C2)SC2=NC(C)(c3ccc(Cl)cc3)C(c3ccc(Cl)cc3)N21` (racemic) had an IC50 of 940 nM.

Take `CC(C)C1=C(C(=O)N(C)C)SC2=NC(C)(c3ccc(Cl)cc3)C(c3ccc(Cl)cc3)N21` (racemic): the IC50 was found to be 42 nM.

The target in a further experiment is E3 ubiquitin-protein ligase Mdm2 (Homo sapiens, UniProt Q00987, L33E). Kind of experiment: Inhibition of human His-tagged p53 (1 to 132 amino acid residues)/GST-tagged MDM2 L33E mutant (25 to 108 amino acid residues) interaction by HTRF assay.
Chain of E3 ubiquitin-protein ligase Mdm2 (Q00987 whole entry L33E, the tested form may be a part): as the sequence (Q00987 whole entry) above, with L33E counted along it
Molecule `CC(C)C1=C(C(=O)N2CC[C@H]2C(=O)N(C)C)SC2=N[C@@](C)(c3ccc(Cl)cc3)[C@@H](c3ccc(Cl)cc3)N21` came in with a half-inhibitory concentration (IC50) of 140 nM.

For the origin of these results see ChEMBL document CHEMBL2311336 (Bioorg Med Chem Lett, 2013).
